# Earlier results, collected in patent publication US20060177438A1, “Methods of altering absorption of hydrophobic compounds” (New England Medical Center, priority 2005, published 2006).
# Conditions: cited from earlier work
structure (smiles),measurement,value
CC(C)CCC[C@@H](C)[C@H]1CC[C@H]2[C@@H]3CC=C4C[C@@H](O)CC[C@]4(C)[C@H]3CC[C@]12C [cholesterol],dietary cholesterol absorbed by the human intestine,34-57%
